What was measured:
[1] = molecular target: glucosylceramide synthase (GCS) (Canis lupus familiaris, UniProt A0A8I3MXG6); assay: GCS Enzymatic Assay (MDCK lysates); type: biochemical, canine; details: MDCK cell lysate, C6-NBD-Ceramide, 37° C. for 1 hour, LC/MS; read-out: Assay 1 (Enzyme Assay; MDCK lysates) IC50
Method: Madin-Darby canine kidney (MDCK) cell lysate was prepared using M-PER Mammalian Protein Extraction Reagent (Thermal Scientific) in the presence of a protease inhibitor cocktail (Roche). Protein concentration was determined using BCA assay kit (Pierce). […] 0.1% DMSO was used as mock treatment or control. The reaction was terminated by adding 100 μL acetonitrile solution and subjected to LC/MS analysis.
The quantitative analysis of NBD-Ceramide and glucosylceramide was performed on a Shimadzu ultra-fast liquid chromatography (Shimadzu, Japan) coupled with API 4000 triple quadrupole mass spectrometer (Applied Biosystems, Concord, Ontario, Canada). Sample separation was conducted on a Waters Xbridge™ BEH130 C18, 100 mm×4.6 mm i.d, 3.5 μm (Milford, Mass., USA). The mobile phase consisted of water and acetonitrile supplemented with 0.1% formic acid (v/v). The flow rate was 1.0 mL/min. The initial mobile phase was 20% acetonitrile and was ramped in a linear fashion to 50% acetonitrile in 0.4 min. From 0.4 to 1.5 min, the gradient was ramped to 98% acetonitrile, and then was held at […] until 8.0 min. Acetonitrile was reset to 20% in 1.5 min, and maintained until 10.0 min. The total run time was 10.0 min. The MS/MS detection was performed in ESI positive mode. […] The cell lysate was diluted with equal volume of acetonitrile. Aliquots of 50 μL diluted samples were added to 1.5 mL tubes, and 100 μL of acetonitrile containing internal standard (100 ng/mL tolbutamide) were added for protein precipitation. The mixture were vortexed and then centrifuged at 13000 rpm for 10 min. 70 μL of supernatant were mixed with 140 μL of H2O and the final solution were injected for LC/MS/MS analysis and IC50's and/or percent inhibitions calculated.

K562 cells = assay: K562 Cell-Based Assay; details: Homo sapiens, NBD-Ceramide, LCMS, read-out: Assay 2 (Cellular Assay; K562 cells) IC50
Method: This assay was modified based on the study by Gupta et al. (J. Lipid Res. 2010, 51, 866). K562 cells were seeded into 12-well plates at 3×10^5 cells/well/mL in RPMI-1640 medium with 5% FBS and incubated at 37° C. for 24 h. One μL of a compound described herein at desired concentration (10 mM, 1 mM, 0.1 mM, 0.01 mM, 0.001 mM and 0.0001 mM in DMSO) or DMSO was added into the corresponding well and mixed. Cells were incubated at 37° C. for 4 h. Then 100 μL of RPMI-1640 medium containing 110 μM of NBD-Ceramide, 11% BSA, 5% FBS, and corresponding concentration of a compound described herein was added into each well and mixed. Cells were incubated for additional 0.5 h at 37° C., followed by washing the cells with ice-cold PBS (pH 7.4) twice with centrifugation and resuspended with 50 μL cold PBS+1% Triton X-100. The cell lysate was sonicated for 15 min before adding equal volume of methanol for LCMS analysis. A small aliquot of cell lysate was used to determine protein concentration by BCA assay kit. The HPLC equipment and methods used in Assay 1 were used in this assay as well and IC50's were calculated.

glucosylceramide synthase (GCS), sequence (A0A8I3MXG6 1-394): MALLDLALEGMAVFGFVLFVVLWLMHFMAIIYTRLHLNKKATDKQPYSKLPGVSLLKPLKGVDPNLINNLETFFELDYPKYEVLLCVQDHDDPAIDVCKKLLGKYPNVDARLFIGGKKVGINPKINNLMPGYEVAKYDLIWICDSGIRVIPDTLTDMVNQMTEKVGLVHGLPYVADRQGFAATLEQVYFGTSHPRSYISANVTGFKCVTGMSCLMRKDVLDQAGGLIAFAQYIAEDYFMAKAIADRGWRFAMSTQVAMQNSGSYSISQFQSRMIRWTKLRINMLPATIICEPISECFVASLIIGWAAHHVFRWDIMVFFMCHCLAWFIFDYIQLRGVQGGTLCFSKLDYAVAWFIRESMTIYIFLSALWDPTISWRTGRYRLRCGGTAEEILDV

## O=C(N[C@H](CN1CCCC1)[C@H](O)c1ccc(OC2CC2)c(Cl)c1)C1=NOCc2cc(-c3ccc(F)cc3)ccc21 [Example 1, N-((1R,2R)-1-(3-chloro-4-cyclopropoxyphenyl)-1-hydroxy-3-(pyrrolidin-1-yl)propan-2-yl)-7-(4-fluorophenyl)-1H-benzo[d][1,2]oxazine-4-carboxamide]
[1]
  IC50: < 10 nM
K562 cells
  IC50: ≤ 10 nM

## O=C(N[C@H](CN1CCCC1)[C@H](O)c1ccc(OC2CC2)c(F)c1)C1=NOCc2cc(-c3ccc(F)cc3)ccc21 [Example 2, N-((1R,2R)-1-(4-cyclopropoxy-3-fluorophenyl)-1-hydroxy-3-(pyrrolidin-1-yl)propan-2-yl)-7-(4-fluorophenyl)-1H-benzo[d][1,2]oxazine-4-carboxamide]
[1]
  IC50: < 10 nM
K562 cells
  IC50: ≤ 10 nM

## O=C(N[C@H](CN1CCCC1)[C@H](O)c1cc(F)c2c(c1)OCCO2)C1=NOCc2cc(-c3ccc(F)cc3)ccc21 [Example 3, N-((1R,2R)-1-(8-fluoro-2,3-dihydrobenzo[b][1,4]dioxin-6-yl)-1-hydroxy-3-(pyrrolidin-1-yl)propan-2-yl)-7-(4-fluorophenyl)-1H-benzo[d][1,2]oxazine-4-carboxamide]
[1]
  IC50: < 10 nM
K562 cells
  IC50: ≤ 10 nM

## O=C(N[C@H](CN1CCCC1)[C@H](O)c1ccc(OC2CC2)cc1)C1=NOCc2cc(-c3ccc(F)cc3)ccc21 [Example 4, N-((1R,2R)-1-(4-cyclopropoxyphenyl)-1-hydroxy-3-(pyrrolidin-1-yl)propan-2-yl)-7-(4-fluorophenyl)-1H-benzo[d][1,2]oxazine-4-carboxamide]
[1]
  IC50: 10 to 100 nM
K562 cells
  IC50: ≤ 10 nM

## O=C(N[C@H](CN1CCC1)[C@H](O)c1ccc(OC2CC2)c(Cl)c1)C1=NOCc2cc(-c3ccc(F)cc3)ccc21 [Example 5, N-((1R,2R)-3-(azetidin-1-yl)-1-(3-chloro-4-cyclopropoxyphenyl)-1-hydroxypropan-2-yl)-7-(4-fluorophenyl)-1H-benzo[d][1,2]oxazine-4-carboxamide]
[1]
  IC50: 10 to 100 nM
K562 cells
  IC50: ≤ 10 nM

## O=C(N[C@H](CN1CCC1)[C@H](O)c1ccc(OC2CC2)cc1)C1=NOCc2cc(-c3ccc(F)cc3)ccc21 [Example 6, N-((1R,2R)-3-(azetidin-1-yl)-1-(4-cyclopropoxyphenyl)-1-hydroxypropan-2-yl)-7-(4-fluorophenyl)-1H-benzo[d][1,2]oxazine-4-carboxamide]
[1]
  IC50: 10 to 100 nM
K562 cells
  IC50: ≤ 10 nM

## O=C(N[C@H](CN1CCC1)[C@H](O)c1ccc(OC2CC2)c(F)c1)C1=NOCc2cc(-c3ccc(F)cc3)ccc21 [Example 7, N-((1R,2R)-3-(azetidin-1-yl)-1-(4-cyclopropoxy-3-fluorophenyl)-1-hydroxypropan-2-yl)-7-(4-fluorophenyl)-1H-benzo[d][1,2]oxazine-4-carboxamide]
[1]
  IC50: < 10 nM
K562 cells
  IC50: ≤ 10 nM

## O=C(N[C@H](CN1CCCC1)[C@H](O)c1ccc(OC2CC2)c(F)c1)C1=NOCc2cc(-c3ccc(Cl)s3)ccc21 [Example 8, 7-(5-chlorothiophen-2-yl)-N-((1R,2R)-1-(4-cyclopropoxy-3-fluorophenyl)-1-hydroxy-3-(pyrrolidin-1-yl)propan-2-yl)-1H-benzo[d][1,2]oxazine-4-carboxamide]
[1]
  IC50: < 10 nM
K562 cells
  IC50: ≤ 10 nM

## O=C(N[C@H](CN1CCC1)[C@H](O)c1ccc(OC2CC2)c(F)c1)C1=NOCc2cc(-c3ccc(Cl)s3)ccc21 [Example 9, N-((1R,2R)-3-(azetidin-1-yl)-1-(4-cyclopropoxy-3-fluorophenyl)-1-hydroxypropan-2-yl)-7-(5-chlorothiophen-2-yl)-1H-benzo[d][1,2]oxazine-4-carboxamide]
[1]
  IC50: < 10 nM
K562 cells
  IC50: ≤ 10 nM

## O=C(N[C@H](CN1CCCC1)[C@H](O)c1ccc(OC2CC2)c(Cl)c1)C1=NOCc2cc(-c3ccc(Cl)s3)ccc21 [Example 10, N-((1R,2R)-1-(3-chloro-4-cyclopropoxyphenyl)-1-hydroxy-3-(pyrrolidin-1-yl)propan-2-yl)-7-(5-chlorothiophen-2-yl)-1H-benzo[d][1,2]oxazine-4-carboxamide]
[1]
  IC50: 10 to 100 nM
K562 cells
  IC50: ≤ 10 nM

## O=C(N[C@H](CN1CCC1)[C@H](O)c1ccc(OC2CC2)cc1)C1=NOCc2cc(-c3ccc(Cl)s3)ccc21 [Example 11, N-((1R,2R)-3-(azetidin-1-yl)-1-(4-cyclopropoxyphenyl)-1-hydroxypropan-2-yl)-7-(5-chlorothiophen-2-yl)-1H-benzo[d][1,2]oxazine-4-carboxamide]
[1]
  IC50: 10 to 100 nM
K562 cells
  IC50: ≤ 10 nM

## O=C(N[C@H](CN1CCCC1)[C@H](O)c1ccc(OC2CC2)c(F)c1)C1=NOCc2c1sc1cc(Cl)ccc21 [Example 12, 7-chloro-N-((1R,2R)-1-(4-cyclopropoxy-3-fluorophenyl)-1-hydroxy-3-(pyrrolidin-1-yl)propan-2-yl)-1H-benzo[4,5]thieno[2,3-d][1,2]oxazine-4-carboxamide]
[1]
  IC50: 10 to 100 nM
K562 cells
  IC50: 10 to 100 nM

## O=C(N[C@H](CN1CCCC1)[C@H](O)c1ccc(OC2CC2)c(Cl)c1)C1=NOCc2c1sc1cc(Cl)ccc21 [Example 13, 7-chloro-N-((1R,2R)-1-(3-chloro-4-cyclopropoxyphenyl)-1-hydroxy-3-(pyrrolidin-1-yl)propan-2-yl)-1H-benzo[4,5]thieno[2,3-d][1,2]oxazine-4-carboxamide]
[1]
  IC50: 10 to 100 nM

## O=C(N[C@H](CN1CCC1)[C@H](O)c1ccc(OC2CC2)c(F)c1)C1=NOCc2c1sc1cc(Cl)ccc21 [Example 15, N-((1R,2R)-3-(azetidin-1-yl)-1-(4-cyclopropoxy-3-fluorophenyl)-1-hydroxypropan-2-yl)-7-chloro-1H-benzo[4,5]thieno[2,3-d][1,2]oxazine-4-carboxamide]
[1]
  IC50: 100 to 1000 nM

## O=C(N[C@H](CN1CCC1)[C@H](O)c1ccc(OC2CC2)c(Cl)c1)C1=NOCc2c1sc1cc(Cl)ccc21 [Example 16, N-((1R,2R)-3-(azetidin-1-yl)-1-(3-chloro-4-cyclopropoxyphenyl)-1-hydroxypropan-2-yl)-7-chloro-1H-benzo[4,5]thieno[2,3-d][1,2]oxazine-4-carboxamide]
[1]
  IC50: 100 to 1000 nM

## CC1(C)ON=C(C(=O)N[C@H](CN2CCCC2)[C@H](O)c2ccc(OC3CC3)c(Cl)c2)c2ccc(-c3ccc(F)cc3)cc21 [Example 23, N-((1R,2R)-1-(3-chloro-4-cyclopropoxyphenyl)-1-hydroxy-3-(pyrrolidin-1-yl)propan-2-yl)-7-(4-fluorophenyl)-1,1-dimethyl-1H-benzo[d][1,2]oxazine-4-carboxamide]
[1]
  IC50: 100 to 1000 nM

## O=C(N[C@H](CN1CCC1)[C@H](O)c1ccc(OC2CC2)cc1)C1=NCCc2cc(-c3ccc(F)cc3)ccc21 [Example 40, N-((1R,2R)-3-(azetidin-1-yl)-1-(4-cyclopropoxyphenyl)-1-hydroxypropan-2-yl)-6-(4-fluorophenyl)-3,4-dihydroisoquinoline-1-carboxamide]
[1]
  IC50: 10 to 100 nM

## CC1(C)Cc2cc(-c3ccc(F)cc3)ccc2C(C(=O)N[C@H](CN2CCCC2)[C@H](O)c2ccc(OC3CC3)c(Cl)c2)=N1 [Example 41, N-((1R,2R)-1-(3-chloro-4-cyclopropoxyphenyl)-1-hydroxy-3-(pyrrolidin-1-yl)propan-2-yl)-6-(4-fluorophenyl)-3,3-dimethyl-3,4-dihydroisoquinoline-1-carboxamide]
[1]
  IC50: 100 to 1000 nM

## O=C(N[C@H](CN1CCCC1)[C@H](O)c1ccc(OC2CC2)c(Cl)c1)C1OCCc2cc(-c3ccc(F)cc3)ccc21 (stereo partly drawn) [Example 42, N-((1R,2R)-1-(3-chloro-4-cyclopropoxyphenyl)-1-hydroxy-3-(pyrrolidin-1-yl)propan-2-yl)-6-(4-fluorophenyl)isochroman-1-carboxamide]
[1]
  IC50: 100 to 1000 nM

## O=C(N[C@H](CN1CCCC1)[C@H](O)c1ccc(OC2CC2)c(Cl)c1)C1OCCc2c1sc1cc(Cl)ccc21 (stereo partly drawn) [Example 43, 7-chloro-N-((1R,2R)-1-(3-chloro-4-cyclopropoxyphenyl)-1-hydroxy-3-(pyrrolidin-1-yl)propan-2-yl)-3,4-dihydro-1H-benzo[4,5]thieno[2,3-c]pyran-1-carboxamide]
[1]
  IC50: 100 to 1000 nM

Reference: US10227312B2, “Glucosylceramide synthase inhibitors for the treatment of diseases” (BIOMARIN PHARMACEUTICAL INC., priority 2015, dated 2019)
